Source: US6355799B1, “Substituted benzene compounds, process for their preparation, and herbicidal and defoliant compositions containing them” (ISK Americas Incorporated, priority 1997, dated 2002)

Experiments:
Format in all cases: in vivo
[1] = system: ivyleaf morningglory (Ipomoea hederacea, IPOHE); assay: Pre-emerge test, greenhouse herbicide activity screening; conditions: pre-emerge; for Pre-emerge Herbicidal Activity IPOHE (phytotoxicity rating, scale 0-100): rated 14 days after application, 0 = no damage, 100 = complete death; for phytotoxicity rating IPOHE: 14 days after application, rating scale 0-100
Method in brief: (§1)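 Sandy loam pots; pre-emerge: sown 1 d pre-spray, surface-watered after, then bottom-watered. Post-emerge: sown 8–21 d before, 2–3 leaf stage, + 0.25% v/v NIS, bottom-watered. Acetone, 187 l/ha track spray, 15–1000 g ai/ha. 0–100 injury score, day 14.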

[2] = system: sicklepod (Cassia obtusifolia, CASOB); assay: as above; conditions: pre-emerge; for Pre-emerge Herbicidal Activity CASOB (phytotoxicity rating, scale 0-100): rated 14 days after application, 0 = no damage, 100 = complete death; for phytotoxicity rating CASOB: 14 days after application, rating scale 0-100
Method in brief: as §1

[3] = system: barnyardgrass (Echinochloa crus-galli, ECHCG); assay: as above; conditions: pre-emerge; for Pre-emerge Herbicidal Activity ECHCG (phytotoxicity rating, scale 0-100): rated 14 days after application, 0 = no damage, 100 = complete death; for phytotoxicity rating ECHCG: 14 days after application, rating scale 0-100
Method in brief: as §1

[4] = system: johnsongrass (Sorghum halepense, SORHA); assay: as above; conditions: pre-emerge; for Pre-emerge Herbicidal Activity SORHA (phytotoxicity rating, scale 0-100): rated 14 days after application, 0 = no damage, 100 = complete death; for phytotoxicity rating SORHA: 14 days after application, rating scale 0-100
Method in brief: as §1

[5] = system: velvetleaf (Abutilon theophrasti, ABUTH); assay: as above; conditions: pre-emerge; for Pre-emerge Herbicidal Activity ABUTH (phytotoxicity rating, scale 0-100): rated 14 days after application, 0 = no damage, 100 = complete death; for phytotoxicity rating ABUTH: 14 days after application, rating scale 0-100
Method in brief: as §1

[6] = system: large crabgrass (Digitaria sanguinalis, DIGSA); assay: as above; conditions: pre-emerge; for Pre-emerge Herbicidal Activity DIGSA (phytotoxicity rating, scale 0-100): rated 14 days after application, 0 = no damage, 100 = complete death; for phytotoxicity rating DIGSA: 14 days after application, rating scale 0-100
Method in brief: as §1

[7] = system: green foxtail (Setaria viridis, SETVI); assay: as above; conditions: pre-emerge; for Pre-emerge Herbicidal Activity SETVI (phytotoxicity rating, scale 0-100): rated 14 days after application, 0 = no damage, 100 = complete death; for phytotoxicity rating SETVI: 14 days after application, rating scale 0-100
Method in brief: as §1

[8] = system: lambsquarters (Chenopodium album, CHEAL); assay: as above; conditions: pre-emerge; for Pre-emerge Herbicidal Activity CHEAL (phytotoxicity rating, scale 0-100): rated 14 days after application, 0 = no damage, 100 = complete death; for phytotoxicity rating CHEAL: 14 days after application, rating scale 0-100
Method in brief: as §1

[9] = system: redroot pigweed (Amaranthus retroflexus, AMARE); assay: as above; conditions: pre-emerge; for Pre-emerge Herbicidal Activity AMARE (phytotoxicity rating, scale 0-100): rated 14 days after application, 0 = no damage, 100 = complete death; for phytotoxicity rating AMARE: 14 days after application, rating scale 0-100
Method in brief: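 Herbicidal damage is scored 0 (none) to 100 (complete plant death) two weeks after a simulated field spray. Rates span 15–1000 g ai/ha, delivered in acetone at 187 l/ha. For post-emergence treatments, plants have 2–3 leaves and the spray carries 0.25% v/v non-ionic surfactant.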

[10] = system: sicklepod (Cassia obtusifolia, CASOB); assay: Post-emerge test, greenhouse herbicide activity screening; conditions: Senna obtusifolia, post-emergence, 336 h, phytotoxicity rating 0-100 (0 no damage, 100 complete death), 14 days after application, read-out: Post-emerge Herbicidal Activity CASOB
Method in brief: as §1

[11] = system: johnsongrass (Sorghum halepense, SORHA); assay: as above; conditions: Sorghum halepense, post-emergence, 336 h, phytotoxicity rating 0-100 (0 no damage, 100 complete death), 14 days after application, read-out: Post-emerge Herbicidal Activity SORHA
Method in brief: as §1

[12] = system: large crabgrass (Digitaria sanguinalis, DIGSA); assay: as above; conditions: Digitaria sanguinalis, post-emergence, 336 h, phytotoxicity rating 0-100 (0 no damage, 100 complete death), 14 days after application, read-out: Post-emerge Herbicidal Activity DIGSA
Method in brief: as §1

[13] = system: lambsquarters (Chenopodium album, CHEAL); assay: as above; conditions: Chenopodium album, post-emergence, 336 h, phytotoxicity rating 0-100 (0 no damage, 100 complete death), 14 days after application, read-out: Post-emerge Herbicidal Activity CHEAL
Method in brief: as §1

COc1c(Cl)cc(F)c(-n2c(=O)cc(C(F)(F)F)n(C)c2=O)c1N [Compound 1-4, 3-(2-amino-4-chloro-6-fluoro-3-methoxyphenyl)-1-methyl-6-trifluoromethyl-2,4(1H, 3H)-pyrimidinedione] was tested, and the “Pre-emerge Herbicidal Activity IPOHE (phytotoxicity rating, scale 0-100)” value ([1]; 63 g ai/ha) was 100, the “Pre-emerge Herbicidal Activity IPOHE (phytotoxicity rating, scale 0-100)” value ([1]; 250 g ai/ha) was 100 and the “phytotoxicity rating IPOHE” value ([1]; 3.9 g ai/ha) was 0. For the same molecule, the “phytotoxicity rating IPOHE” value ([1]; 7.8 g ai/ha) was 0, the “phytotoxicity rating IPOHE” value ([1]; 15.6 g ai/ha) was 0 and the “phytotoxicity rating IPOHE” value ([1]; 31.3 g ai/ha) was 50. The “phytotoxicity rating IPOHE” value ([1]; 62.5 g ai/ha) was 90, the “phytotoxicity rating IPOHE” value ([1]; 125 g ai/ha) was 100 and the “phytotoxicity rating IPOHE” value ([1]; 250 g ai/ha) was 100. The “Pre-emerge Herbicidal Activity CASOB (phytotoxicity rating, scale 0-100)” value ([2]; 63 g ai/ha) was 90, the “Pre-emerge Herbicidal Activity CASOB (phytotoxicity rating, scale 0-100)” value ([2]; 250 g ai/ha) was 100 and the “phytotoxicity rating CASOB” value ([2]; 3.9 g ai/ha) was 0. For the same molecule, the “phytotoxicity rating CASOB” value ([2]; 7.8 g ai/ha) was 30, the “phytotoxicity rating CASOB” value ([2]; 15.6 g ai/ha) was 100 and the “phytotoxicity rating CASOB” value ([2]; 31.3 g ai/ha) was 0. For the same molecule, the “phytotoxicity rating CASOB” value ([2]; 62.5 g ai/ha) was 80, the “phytotoxicity rating CASOB” value ([2]; 125 g ai/ha) was 95 and the “phytotoxicity rating CASOB” value ([2]; 250 g ai/ha) was 100. For the same molecule, the “Pre-emerge Herbicidal Activity ECHCG (phytotoxicity rating, scale 0-100)” value ([3]; 63 g ai/ha) was 100, the “Pre-emerge Herbicidal Activity ECHCG (phytotoxicity rating, scale 0-100)” value ([3]; 250 g ai/ha) was 100 and the “phytotoxicity rating ECHCG” value ([3]; 3.9 g ai/ha) was 0. The “phytotoxicity rating ECHCG” value ([3]; 7.8 g ai/ha) was 0, the “phytotoxicity rating ECHCG” value ([3]; 15.6 g ai/ha) was 0 and the “phytotoxicity rating ECHCG” value ([3]; 31.3 g ai/ha) was 10. The “phytotoxicity rating ECHCG” value ([3]; 62.5 g ai/ha) was 30, the “phytotoxicity rating ECHCG” value ([3]; 125 g ai/ha) was 95 and the “phytotoxicity rating ECHCG” value ([3]; 250 g ai/ha) was 100. For the same molecule, the “Pre-emerge Herbicidal Activity SORHA (phytotoxicity rating, scale 0-100)” value ([4]; 63 g ai/ha) was 85, the “Pre-emerge Herbicidal Activity SORHA (phytotoxicity rating, scale 0-100)” value ([4]; 250 g ai/ha) was 100 and the “phytotoxicity rating SORHA” value ([4]; 3.9 g ai/ha) was 0. The “phytotoxicity rating SORHA” value ([4]; 7.8 g ai/ha) was 0, the “phytotoxicity rating SORHA” value ([4]; 15.6 g ai/ha) was 0 and the “phytotoxicity rating SORHA” value ([4]; 31.3 g ai/ha) was 30. For the same molecule, the “phytotoxicity rating SORHA” value ([4]; 62.5 g ai/ha) was 40, the “phytotoxicity rating SORHA” value ([4]; 125 g ai/ha) was 95 and the “phytotoxicity rating SORHA” value ([4]; 250 g ai/ha) was 100. The “Pre-emerge Herbicidal Activity ABUTH (phytotoxicity rating, scale 0-100)” value ([5]; 63 g ai/ha) was 100, the “Pre-emerge Herbicidal Activity ABUTH (phytotoxicity rating, scale 0-100)” value ([5]; 250 g ai/ha) was 100 and the “phytotoxicity rating ABUTH” value ([5]; 3.9 g ai/ha) was 95. The “phytotoxicity rating ABUTH” value ([5]; 7.8 g ai/ha) was 100, the “phytotoxicity rating ABUTH” value ([5]; 15.6 g ai/ha) was 100 and the “phytotoxicity rating ABUTH” value ([5]; 31.3 g ai/ha) was 100. For the same molecule, the “phytotoxicity rating ABUTH” value ([5]; 62.5 g ai/ha) was 100, the “phytotoxicity rating ABUTH” value ([5]; 125 g ai/ha) was 100 and the “phytotoxicity rating ABUTH” value ([5]; 250 g ai/ha) was 100. For the same molecule, the “Pre-emerge Herbicidal Activity DIGSA (phytotoxicity rating, scale 0-100)” value ([6]; 63 g ai/ha) was 100, the “Pre-emerge Herbicidal Activity DIGSA (phytotoxicity rating, scale 0-100)” value ([6]; 250 g ai/ha) was 100 and the “phytotoxicity rating DIGSA” value ([6]; 3.9 g ai/ha) was 0. The “phytotoxicity rating DIGSA” value ([6]; 7.8 g ai/ha) was 30, the “phytotoxicity rating DIGSA” value ([6]; 15.6 g ai/ha) was 30 and the “phytotoxicity rating DIGSA” value ([6]; 31.3 g ai/ha) was 30. For the same molecule, the “phytotoxicity rating DIGSA” value ([6]; 62.5 g ai/ha) was 95, the “phytotoxicity rating DIGSA” value ([6]; 125 g ai/ha) was 100 and the “phytotoxicity rating DIGSA” value ([6]; 250 g ai/ha) was 100. For the same molecule, the “Pre-emerge Herbicidal Activity SETVI (phytotoxicity rating, scale 0-100)” value ([7]; 63 g ai/ha) was 100, the “Pre-emerge Herbicidal Activity SETVI (phytotoxicity rating, scale 0-100)” value ([7]; 250 g ai/ha) was 100 and the “phytotoxicity rating SETVI” value ([7]; 3.9 g ai/ha) was 0. For the same molecule, the “phytotoxicity rating SETVI” value ([7]; 7.8 g ai/ha) was 60, the “phytotoxicity rating SETVI” value ([7]; 15.6 g ai/ha) was 80 and the “phytotoxicity rating SETVI” value ([7]; 31.3 g ai/ha) was 80. For the same molecule, the “phytotoxicity rating SETVI” value ([7]; 62.5 g ai/ha) was 100, the “phytotoxicity rating SETVI” value ([7]; 125 g ai/ha) was 100 and the “phytotoxicity rating SETVI” value ([7]; 250 g ai/ha) was 100. The “Pre-emerge Herbicidal Activity CHEAL (phytotoxicity rating, scale 0-100)” value ([8]; 63 g ai/ha) was 100, the “Pre-emerge Herbicidal Activity CHEAL (phytotoxicity rating, scale 0-100)” value ([8]; 250 g ai/ha) was 100 and the “phytotoxicity rating CHEAL” value ([8]; 3.9 g ai/ha) was 30. For the same molecule, the “phytotoxicity rating CHEAL” value ([8]; 7.8 g ai/ha) was 60, the “phytotoxicity rating CHEAL” value ([8]; 15.6 g ai/ha) was 100 and the “phytotoxicity rating CHEAL” value ([8]; 31.3 g ai/ha) was 100. For the same molecule, the “phytotoxicity rating CHEAL” value ([8]; 62.5 g ai/ha) was 100, the “phytotoxicity rating CHEAL” value ([8]; 125 g ai/ha) was 100 and the “phytotoxicity rating CHEAL” value ([8]; 250 g ai/ha) was 100. For the same molecule, the “Pre-emerge Herbicidal Activity AMARE (phytotoxicity rating, scale 0-100)” value ([9]; 63 g ai/ha) was 100, the “Pre-emerge Herbicidal Activity AMARE (phytotoxicity rating, scale 0-100)” value ([9]; 250 g ai/ha) was 100 and the “phytotoxicity rating AMARE” value ([9]; 3.9 g ai/ha) was 30. The “phytotoxicity rating AMARE” value ([9]; 7.8 g ai/ha) was 100, the “phytotoxicity rating AMARE” value ([9]; 15.6 g ai/ha) was 90 and the “phytotoxicity rating AMARE” value ([9]; 31.3 g ai/ha) was 100. The “phytotoxicity rating AMARE” value ([9]; 62.5 g ai/ha) was 100, the “phytotoxicity rating AMARE” value ([9]; 125 g ai/ha) was 100 and the “phytotoxicity rating AMARE” value ([9]; 250 g ai/ha) was 100. It also gave a pest or weed control at 63 g/ha ([10]; 63 g ai/ha) of 60%, a pest or weed control at 250 g/ha ([10]; 250 g ai/ha) of 100% and a pest or weed control at 63 g/ha ([11]; 63 g ai/ha) of 0%. It also gave a pest or weed control at 250 g/ha ([11]; 250 g ai/ha) of 70%, a pest or weed control at 63 g/ha ([12]; 63 g ai/ha) of 0% and a pest or weed control at 250 g/ha ([12]; 250 g ai/ha) of 50%. For the same molecule, the pest or weed control at 63 g/ha ([13]; 63 g ai/ha) was 60% and the pest or weed control at 250 g/ha ([13]; 250 g ai/ha) was 95%.
